# From patent publication US8614221B2, “Inhibitors of Akt activity” (Merck Sharp & Dohme Corp., priority 2009, dated 2013)
# Assays:
# Akt2 kinase = target: T1, Akt2 kinase (Homo sapiens, UniProt P31751); assay: Akt kinase assay (HTRF, GSK-derived biotinylated peptide substrate); format: biochemical
# T1 construct: a middle T tag was added to the 5′ end of the full length Akt2 using the PCR primer; middle T tag (EYMPME) (N); biotin tag (from pS2neo vector); made in house; host or cells: Drosophila S2 cells
# T1 sequence (P31751 whole entry): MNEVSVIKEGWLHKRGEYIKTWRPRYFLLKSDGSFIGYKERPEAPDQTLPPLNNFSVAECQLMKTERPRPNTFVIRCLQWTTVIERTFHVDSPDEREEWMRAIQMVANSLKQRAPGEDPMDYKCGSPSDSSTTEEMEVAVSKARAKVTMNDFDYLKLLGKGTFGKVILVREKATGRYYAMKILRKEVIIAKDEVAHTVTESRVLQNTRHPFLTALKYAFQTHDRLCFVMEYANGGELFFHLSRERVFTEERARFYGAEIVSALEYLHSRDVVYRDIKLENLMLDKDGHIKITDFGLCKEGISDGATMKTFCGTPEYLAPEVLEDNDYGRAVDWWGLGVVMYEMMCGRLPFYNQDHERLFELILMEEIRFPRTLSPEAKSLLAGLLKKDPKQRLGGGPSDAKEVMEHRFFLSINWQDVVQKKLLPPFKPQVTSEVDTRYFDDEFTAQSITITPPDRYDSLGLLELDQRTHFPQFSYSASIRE
# Experimental: (§1) Activated Akt isoforms and pleckstrin homology domain deletion constructs were assayed utilizing a GSK-derived biotinylated peptide substrate. The extent of peptide phosphorylation was determined by Homogeneous Time Resolved Fluorescence (HTRF) using a lanthanide chelate(Lance)-coupled monoclonal antibody specific for the phosphopeptide in combination with a streptavidin-linked allophycocyanin (SA-APC) fluorophore which will bind to the biotin moiety on the peptide. When the Lance and APC are in proximity (i.e. bound to the same phosphopeptide molecule), a non-radiative energy transfer takes place from the Lance to the APC, followed by emission of light from APC at 665 nm.
# (§2) Materials required for the assay:
# (§3) A. Activated Akt isozyme or pleckstrin homology domain deleted construct
# (§4) B. Akt peptide substrate: GSK3α (S21) Peptide #3928 biotin-GGRARTSSFAEPG (SEQ. ID. NO. 15), Macromolecular Resources.
# (§5) C. Lance labeled anti-phospho GSK3α monoclonal antibody (Cell Signaling Technology, clone #27).
# (§6) D. SA-APC (Prozyme catalog no. MSS lot #896067).
# (§7) E. Microfluor®B U Bottom Microtiter Plates (Dynex Technologies, Catalog no. 7205).
# (§8) F. Discovery® HTRF Microplate Analyzer, Packard Instrument Company.
# (§9) G. 100× Protease Inhibitor Cocktail (PIC): 1 mg/mL benzamidine, 0.5 mg/mL pepstatin, 0.5 mg/mL leupeptin, 0.5 mg/mL aprotinin.
# (§10) H. 10× Assay Buffer: 500 mM HEPES, pH 7.5, 1% PEG, […], 1 mM EGTA, 1% BSA, 20 mM θ-Glycerol phosphate.
# (§11) I. Quench Buffer: 50 mM HEPES pH 7.3, 16.6 mM EDTA, 0.1% BSA, 0.1% Triton X-100, 0.17 nM Lance labeled monoclonal antibody clone #27, 0.0067 mg/mL SA-APC
# (§12) J. ATP/MgCl2 working solution: 1× Assay buffer, 1 mM DTT, 1×PIC, 125 mM KCl, 5% Glycerol, 25 mM MgCl2, 375 μM ATP
# (§13) K. Enzyme working solution: 1× Assay buffer, 1 mM DTT, 1×PIC, 5% Glycerol, active Akt. The final enzyme concentrations were selected so that the assay was in a linear response range.
# (§14) L. Peptide working solution: 1× Assay buffer, 1 mM DTT, 1×PIC, 5% Glycerol, 2 μM GSK3 biotinylated peptide #3928
# (§15) The reaction is assembled by adding 16 μL of the ATP/MgCl2 working solution to the appropriate wells of a 96-well microliter plate. Inhibitor or vehicle (1.0 μL) is added followed by 10 μL of peptide working solution. The reaction is started by adding 13 μL of the enzyme working solution and mixing. The reaction is allowed to proceed for 50 min and then stopped by the addition of 60 μL HTRF quench buffer. The stopped reactions were incubated at room temperature for at least 30 min and then read on the Discovery instrument.
# Akt1 kinase = target: T2, Akt1 kinase (Homo sapiens, UniProt P31749); assay: as above; format: biochemical
# T2 construct: a middle T tag was added to the 5′ end of the full length Akt1 gene; middle T tag (EYMPME) (N); biotin tag (from pS2neo vector); made in house; host or cells: Drosophila S2 cells
# T2 sequence (P31749 whole entry): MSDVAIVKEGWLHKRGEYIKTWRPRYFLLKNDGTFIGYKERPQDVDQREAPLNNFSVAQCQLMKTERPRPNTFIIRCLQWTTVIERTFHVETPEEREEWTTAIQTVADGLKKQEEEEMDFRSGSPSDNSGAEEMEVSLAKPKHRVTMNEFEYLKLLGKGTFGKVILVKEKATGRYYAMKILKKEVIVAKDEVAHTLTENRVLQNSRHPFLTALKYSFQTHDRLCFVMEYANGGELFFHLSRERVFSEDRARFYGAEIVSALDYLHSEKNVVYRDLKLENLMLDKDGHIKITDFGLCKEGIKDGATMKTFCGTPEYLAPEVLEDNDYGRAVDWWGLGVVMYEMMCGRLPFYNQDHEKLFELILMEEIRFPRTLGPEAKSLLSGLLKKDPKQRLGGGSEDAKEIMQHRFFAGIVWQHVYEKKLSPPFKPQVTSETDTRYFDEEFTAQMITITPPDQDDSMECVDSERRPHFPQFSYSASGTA
# Experimental: as §1, §2, §3, §4, §5, §6, §7, §8, §9, §10, §11, §12, §13, §14, §15
SMILES,IC50 (Akt2 kinase),IC50 (Akt1 kinase)
"Cc1cc2ncc3cc(-c4ccccc4)c(-c4ccc([C@]5(N)C[C@@](O)(C6CC6)C5)cc4)nc3n2n1 [EXAMPLE 1-9, trans-3-amino-1-cyclopropyl-3-[4-(2-methyl-7-phenylpyrazolo[1,5-a]pyrido[3,2-e]pyrimidin-8-yl)phenyl]cyclobutanol]",29 nM,4 nM
"NC1(c2ccc(-c3nc4c(ccn5c(C6CC6)nnc45)cc3-c3ccccc3)cc2)CCC1 [EXAMPLE 9-2, 1-{4-[3-cyclopropyl-8-phenyl[1,2,4]triazolo[4,3-h]-1,7-naphthyridin-9-yl)phenyl}cyclobutanamine]",33.8 nM,32.7 nM
"c1ccc(-c2cc3cnc4nc(N5CCOCC5)nn4c3nc2-c2ccc(CN3CCC(c4nnc(-c5ccccn5)[nH]4)CC3)cc2)cc1 [EXAMPLE 12-3, 2-morpholin-4-yl-7-phenyl-8-(4-{[4-(5-pyridin-2-yl-4H-1,2,4-triazol-3-yl)piperidin-1-yl]methyl}phenyl)pyrido[3,2-e][1,2,4]triazolo[1,5-a]pyrimidine]",33.8 nM,4.6 nM
"C=CCNC(=O)C1CCN(Cc2ccc(-c3nc4c(cnc5cc(C)nn54)cc3-c3ccccc3)cc2)CC1 [EXAMPLE 15-3, 2-methyl-7-phenyl-8-(4-{[4-(prop-2-en-1-ylcarbamoyl)piperidin-1-yl]methyl}phenyl)pyrazolo[1,5-a]pyrido[3,2-e]pyrimidine]",578 nM,37.2 nM
